Read-outs that look alike come from different tables or passages of the source.
Legend:
influenza A/WSN/33 virus [1] = assay: microbe, parasite or virus in culture; conditions: A549, 24 h
influenza A/WSN/33 virus [2] = system: influenza A/WSN/33 virus
A549 cells = conditions: 24 h treatment, MTS assay
[3] = system: influenza B/Yamagata/88 virus; format: cell-based
in vitro = conditions: human
influenza A/WSN/33 virus [4] = assay: in vitro; conditions: human
influenza A/WSN/33 virus [5] = conditions: ∼6 μM PMA
[6] = system: Newcastle disease virus (NDV/B1); format: cell-based
[7] = system: vesicular stomatitis virus (VSV-GFP); format: cell-based
influenza A/WSN/33 virus [8] = format: cell-based
[9] = read-out: IC50 (compound concentration of 50% inhibition of viral replication)

With `CC(=O)c1c(O)c(C)c(O)c(Cc2c(O)c3c(c(C(=O)/C=C/c4ccccc4)c2O)OC(C)(C)C=C3)c1O` [rottlerin] as the molecule, how does the IC50 (influenza A/WSN/33 virus [1]; [9]) read?
Its IC50 is 460 nM.

What about the IC50 (influenza A/WSN/33 virus [1]; read-out: IC50 (half maximal inhibitory concentration)) of the same molecule?
The IC50 was 465 nM.

What about the “reduction in viral titers compared to untreated control” value (“reduction in viral titers” for short) (influenza A/WSN/33 virus [2]) of the same molecule?
The value was 93%.

What about the “concentrations found to be non-toxic / not decreasing cell viability” value (A549 cells) of the same molecule?
The value was “up to 1.28 μM”.

What about the “reduction in viral titers” value [3] of the same molecule?
Its value is 80%.

What about the CC50 (in vitro) of the same molecule?
Its CC50 is 18200 nM.

What about the selectivity ratio (influenza A/WSN/33 virus [4]) of the same molecule?
The selectivity ratio was 39.

For `CCCCCCCCCCCCCC(=O)O[C@@H]1[C@@H](C)[C@@]2(O)[C@@H](C=C(CO)C[C@]3(O)C(=O)C(C)=C[C@@H]23)[C@@H]2C(C)(C)[C@]12OC(C)=O` [PMA, phorbol 12-myristate 13-acetate], which “increase in viral titer compared to untreated control” value (influenza A/WSN/33 virus [2]) is on record?
The value was 12 fold.

What about the “toxicity at the concentration used in the screen” value (influenza A/WSN/33 virus [5]) of the same molecule?
The value was “toxic”.

For `C[C@@H]1O[C@@H](O[C@H]2C[C@@H](O)[C@]3(CO)[C@H]4[C@H](O)C[C@]5(C)[C@@H](C6=CC(=O)OC6)CC[C@]5(O)[C@@H]4CC[C@]3(O)C2)[C@H](O)[C@H](O)[C@H]1O` [ouabain], which “effect on viral replication” value [6] is on record?
The value was “significantly inhibit”.

And the “effect on viral replication” value [7]?
The value was “significantly inhibit”.

What about the “decrease in viral titers compared to untreated control” value (influenza A/WSN/33 virus [2]) of the same molecule?
Its value is 99.1%.

Which results are given for `C=C(C)[C@@]12O[C@@]3(c4ccccc4)O[C@@H]1[C@@H]1[C@@H]4O[C@]4(CO)[C@@H](O)[C@]4(O)C(=O)C(C)=C[C@H]4[C@@]1(O3)[C@H](C)[C@H]2OC(=O)/C=C/C=C/c1ccccc1` [mezerein]?
increase in viral titers (influenza A/WSN/33 virus [8]): 15 fold; increase in viral titer compared to untreated cells [3]: eightfold

Which “SI (CC50/IC50), selective index” value (influenza A/WSN/33 virus [2]) does the source give for `N#Cc1cc2c(OCC(O)CN3CCN(C(c4ccccc4)c4ccccc4)CC3)cccc2[nH]1` (stereo not shown) [SDZ-201106] here?
The value was 7.

And the “reduction in viral titers” value (influenza A/WSN/33 virus [2])?
The value was 85%.

What about the IC50 (influenza A/WSN/33 virus [2]; [9]) of the same molecule?
The IC50 was 4100 nM.

What about the “concentrations found to be non-toxic / not decreasing cell viability” value (A549 cells) of the same molecule?
Its value is “up to 12.5 μM”.

And the “reduction in viral titers” value [3]?
The value was 72%.

Which results are given for `CC(=O)O[C@H]1C[C@H](O[C@H]2[C@@H](O)C[C@H](O[C@H]3[C@@H](O)C[C@H](O[C@H]4CC[C@@]5(C)[C@H](CC[C@@H]6[C@@H]5C[C@@H](O)[C@]5(C)[C@@H](C7=CC(=O)OC7)CC[C@]65O)C4)O[C@@H]3C)O[C@@H]2C)O[C@H](C)[C@H]1O[C@@H]1O[C@H](CO)[C@@H](O)[C@H](O)[C@H]1O` [lanatoside C]?
effect on viral replication [6]: significantly inhibit; effect on viral replication [7]: significantly inhibit; decrease in viral titers compared to untreated control (influenza A/WSN/33 virus [2]; […], 20 nM ouabain or 78 nM lanatoside C): 95.9%

Reference: PMC2614658 (Antiviral Research, 2008)
